For experiment [1], the system named is A549. The experiment can be described thus: Cytotoxicity against human A549 cells at < […] after 48 hrs by SRB assay. It is filed as functional, cell-based. For orientation: Sulforhodamine B stains cellular protein and so reports cell mass.
The subject of experiment [2] is MDA-MB-231. The experiment in a line: Cytotoxicity against human MDA-MB-231 cells at < […] after 48 hrs by SRB assay. Type of experiment: functional, cell-based.
The subject of experiment [3] is HT-29. The experiment can be described thus: Cytotoxicity against human HT-29 cells at < […] after 48 hrs by SRB assay. Type of experiment: functional, cell-based.
For experiment [4], the system named is A549. The experiment can be described thus: Growth inhibition of human A549 cells. Type of experiment: functional.
In experiment [5] the test system is HT-29. The experiment in a line: Induction of apoptosis in human HT-29 cells at 41 ug/mL after 24 hrs using propidium iodide staining by flow cytometry. Type of experiment: functional. For orientation: In flow cytometry, cells or beads pass a laser one at a time.
The test system of experiment [6] is HT-29. The experiment can be described thus: Induction of apoptosis in human HT-29 cells at 41 ug/mL after 72 hrs using propidium iodide staining by flow cytometry. Type of experiment: functional.
Experiment [7] has as its system HT-29. The experiment can be described thus: Induction Wee1 protein degradation in human HT-29 cells at 41 ug/mL after 24 to 60 hrs by Western blotting. Type of experiment: functional, cell-based. For orientation: In western blotting, separated proteins are transferred to a membrane and probed.
In experiment [8] the test system is HT-29. The experiment in a line: Cell cycle arrest in 0.2 ug/mL nocodazole pretreated human HT-29 cells assessed as accumulation at G1 phase at 41 ug/mL after 72 hrs using propidium iodide staining by flow cytometry. It is filed as functional.
For experiment [9], the system named is HT-29. The experiment in a line: Cell cycle arrest in human HT-29 cells assessed as accumulation at S phase at 41 ug/mL after 24 hrs using propidium iodide staining by flow cytometry. It is filed as functional.
In experiment [10] the test system is HT-29. The experiment can be described thus: Induction cdc2 protein degradation in 300 uM protein synthesis inhibitor cycloheximide pretreated human HT-29 cells at 41 ug/mL after 6 to 36 hrs by Western blotting. Type of experiment: functional, cell-based.
The subject of experiment [11] is HT-29. The experiment can be described thus: Growth inhibition of human HT-29 cells. It is filed as functional.
Experiment [12] has as its system HT-29. The experiment can be described thus: Induction cdc2 protein degradation in human HT-29 cells at 41 ug/mL after 24 to 60 hrs by Western blotting. It is filed as functional, cell-based.
Experiment [13] concerns HT-29. The experiment can be described thus: Induction of DNA damage signaling pathways in human HT-29 cells assessed as Chk2 phosphorylation at 41 ug/mL after 24 hrs by Western blotting. It is filed as functional, cell-based.
Experiment [14] concerns HT-29. The experiment in a line: Induction of increase in histone gamma-H2A.X levels in human HT-29 cells at 41 ug/mL after 24 to 60 hrs by Western blotting. It is filed as functional, cell-based.
Experiment [15] has as its system HT-29. The experiment can be described thus: Cell cycle arrest in 0.2 ug/mL nocodazole pretreated human HT-29 cells assessed as accumulation at G2/M phase at 41 ug/mL after 72 hrs using propidium iodide staining by flow cytometry. It is filed as functional.
Experiment [16] deals with HT-29. The experiment in a line: Cytotoxicity against human HT-29 cells assessed as reduction in cell viability at 41 ug/mL after 48 hrs by MTT assay. It is filed as functional. Particulars: HT-29, 48 h.
Experiment [17] deals with HT-29. The experiment in a line: Induction Wee1 protein degradation in 10 uM proteasome inhibitor MG132 pretreated human HT-29 cells at 41 ug/mL after 6 to 36 hrs by Western blotting. It is filed as functional, cell-based.
The test system of experiment [18] is HT-29. The experiment can be described thus: Cell cycle arrest in human HT-29 cells assessed as accumulation at G2/M phase at 41 ug/mL after 24 hrs using propidium iodide staining by flow cytometry. It is filed as functional.
The subject of experiment [19] is HT-29. The experiment can be described thus: Induction of apoptosis in 0.2 ug/mL nocodazole pretreated human HT-29 cells at 41 ug/mL after 72 hrs using propidium iodide staining by flow cytometry. Type of experiment: functional.
In experiment [20] the test system is HT-29. The experiment can be described thus: Cell cycle arrest in 0.2 ug/mL nocodazole pretreated human HT-29 cells assessed as accumulation at S phase at 41 ug/mL after 72 hrs using propidium iodide staining by flow cytometry. Type of experiment: functional.
Experiment [21] deals with HT-29. The experiment in a line: Cell cycle arrest in human HT-29 cells assessed as accumulation at G1 phase at 41 ug/mL after 72 hrs using propidium iodide staining by flow cytometry. Type of experiment: functional.
For experiment [22], the system named is HT-29. The experiment in a line: Induction Wee1 protein degradation in 300 uM protein synthesis inhibitor cycloheximide pretreated human HT-29 cells at 41 ug/mL after 6 to 36 hrs by Western blotting. It is filed as functional, cell-based.
In experiment [23] the test system is HT-29. The experiment in a line: Induction cdc2 protein degradation in 10 uM proteasome inhibitor MG132 pretreated human HT-29 cells at 41 ug/mL after 6 to 36 hrs by Western blotting. It is filed as functional, cell-based.
Experiment [24] has as its system HT-29. The experiment can be described thus: Induction Cyclin B1 protein degradation in human HT-29 cells at 41 ug/mL after 24 to 60 hrs by Western blotting. It is filed as functional, cell-based.
For experiment [25], the system named is HT-29. The experiment in a line: Cell cycle arrest in human HT-29 cells assessed as accumulation at G2/M phase at 41 ug/mL after 72 hrs using propidium iodide staining by flow cytometry. It is filed as functional.
The subject of experiment [26] is HT-29. The experiment can be described thus: Induction of DNA damage signaling pathways in human HT-29 cells assessed as Chk1 phosphorylation at 41 ug/mL after 24 hrs by Western blotting. It is filed as functional, cell-based.
The subject of experiment [27] is HT-29. The experiment can be described thus: Reduction of phosphorylated cdc2 protein level in 0.2 ug/mL nocodazole pretreated human HT-29 cells at 41 ug/mL after 24 to 72 hrs by Western blotting. Type of experiment: functional, cell-based.
The subject of experiment [28] is HT-29. The experiment in a line: Induction of DNA damage signaling pathways in human HT-29 cells assessed as p53 phosphorylation at 41 ug/mL after 24 hrs by Western blotting. Type of experiment: functional, cell-based.
Experiment [29] relates to HT-29. The experiment in a line: Cell cycle arrest in human HT-29 cells assessed as accumulation at G1 phase at 41 ug/mL after 24 hrs using propidium iodide staining by flow cytometry. Type of experiment: functional.
In experiment [30] the test system is HT-29. The experiment can be described thus: Cell cycle arrest in human HT-29 cells assessed as accumulation at S phase at 41 ug/mL after 72 hrs using propidium iodide staining by flow cytometry. Type of experiment: functional.

Each structure is given as a SMILES string. The source made the active and inactive calls. No cut-off for these calls is given here.

The inhibition is the change of the read-out against control, counted positive when it falls.

In the case of `COc1c(C)c(OC)c(OC)c2c1C[C@H]1CNCC(=O)N1[C@H]2CO` (relative stereo), the inhibition result in experiment [1], in experiment [2] and in [3] was “inactive” throughout.

In experiment [4], `COc1c(C)c(OC)c(OC)c2c1C[C@H]1[C@@H](O)N(C(=O)OC(C)C)CC(=O)N1[C@H]2COCc1ccccc1` yielded a GI of 5.68 ×10⁻⁶ M.

For `COc1c(C)c(OC)c(OC)c2c1C[C@H]1CN(C(=O)OC(C)C)C[C@@H](C#N)N1[C@H]2COC(=O)c1cccc2ccccc12` (relative stereo), the inhibition entry in experiment [1], in experiment [2] and in experiment [3] was “inactive” each time.

In the case of `COc1c(C)c(OC)c(OC)c2c1C[C@H]1CN(C(=O)OC(C)C)C[C@@H](C#N)N1[C@H]2COC(=O)/C=C/c1ccccc1` (relative stereo), the inhibition result in experiment [1], in experiment [2] and in experiment [3] was “inactive” throughout.

On to `COc1c(C)c(OC)c(OC)c2c1C[C@H]1CN(C(=O)OC(C)C)CC(=O)N1[C@H]2CO[Si](c1ccccc1)(c1ccccc1)C(C)(C)C` (relative stereo), for which the inhibition result in experiment [1], in experiment [2] and in [3] was “inactive” in each case.

On to `COc1c(C)c(OC)c(OC)c2c1C[C@H]1CN(C(=O)OC(C)C)CC(=O)N1[C@H]2COCc1ccccc1`, for which the Activity is 4.3% in [5]; 29.9% in [6]; 31% in experiment [8]; 15.2% in experiment [9]; 18.3% in experiment [15]; 16.4% in experiment [18]. The Activity in experiment [19] is 35.6%; in experiment [20], 13.4%; in [21], 45.9%; in experiment [25], 10.4%; in experiment [29], 61.4%; in experiment [30], 12.8%. Further, the outcome in experiment [7], in experiment [12], in experiment [13], in [14], in experiment [17] and in experiment [24] was inactive. For the same compound, the result in [26] and in [28] was inactive. Further, the result in experiment [10], in experiment [22], in [23] and in experiment [27] was Active. Besides, the GI in experiment [11] is 1.95 ×10⁻⁷ M. Besides, the inhibition entry in experiment [1], in experiment [2] and in experiment [3] was “Active” in each case. In [16], the inhibition at 41 µg/mL came to 80%.

As to `COc1c(C)c(OC)c(OC)c2c1C[C@H]1CN(C)CC(=O)N1[C@H]2CO` (relative stereo), the inhibition entry in experiment [1], in experiment [2] and in [3] was “inactive” throughout.

With `COc1c(C)c(OC)c(OC)c2c1C[C@H]1CN(C(=O)OC(C)C)C[C@@H](C#N)N1[C@H]2CO` (relative stereo), the inhibition result in experiment [1], in experiment [2] and in experiment [3] was “inactive” throughout.

On to `COc1c(C)c(OC)c(OC)c2c1C[C@H]1CN(C)C[C@H]3OC[C@@H]2N13` (relative stereo), for which the inhibition result in [1], in experiment [2] and in experiment [3] was “inactive” in each case.

For the compound `COc1c(C)c(OC)c(OC)c2c1C[C@H]1CN(C(=O)OC(C)C)C[C@H]3OC[C@@H]2N13` (relative stereo), the inhibition result in [1], in [2] and in [3] was “inactive” throughout.

For the compound `COc1c(C)c(OC)c(OC)c2c1C[C@H]1CN(C(=O)OC(C)C)CC(=O)N1[C@H]2CO`, the inhibition result in [1], in [2] and in experiment [3] was “inactive” each time.
